According to patent publication US5202315A, “Cephalosporin compounds” (Lucky, Ltd., priority 1989, dated 1993):
Values after ≈ are worked out from the molar mass of the structure shown.

Key:
Test in all cases: Antibacterial activity, MIC
Type in all cases: cell-based
[1] = system: Bacillus megaterium ATCC 9885; conditions: Priestia megaterium, ATCC9885; ATCC 9885; agar two-fold dilution, 37° C., 20 hours; read-out: MIC
In short: (§1)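 The compound is dispersed into Mueller-Hinton agar across a two-fold dilution series. Each strain is applied as 2 μl of a 10^7 CFU/ml suspension and grown 20 hours at 37 °C.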

[2] = system: Staphylococcus aureus ATCC 6538p; conditions: ATCC6538P, ATCC 6538p, agar two-fold dilution, 37° C., 20 hours, read-out: MIC
In short: as §1

[3] = system: Enterobacter aerogenes ATCC 29751; conditions: Klebsiella aerogenes, ATCC29751; ATCC 29751; agar two-fold dilution, 37° C., 20 hours; read-out: MIC
In short: as §1

[4] = system: Shigella flexneri ATCC 11836; conditions: ATCC11836, agar two-fold dilution, 37° C., 20 hours
In short: as §1

[5] = system: Salmonella typhimurium ATCC 14028; conditions: Salmonella enterica; ATCC 14028; agar two-fold dilution, 37° C., 20 hours; read-out: MIC
In short: as §1

[6] = system: Escherichia coli ATCC 10536; conditions: ATCC10536, agar two-fold dilution, 37° C., 20 hours
In short: as §1

[7] = system: Pseudomonas aeruginosa ATCC 27853; conditions: ATCC27853, ATCC 27853, agar two-fold dilution, 37° C., 20 hours, read-out: MIC
In short: as §1

[8] = system: Staphylococcus epidermidis ATCC 12228; conditions: ATCC12228, ATCC 12228, agar two-fold dilution, 37° C., 20 hours, read-out: MIC
In short: as §1

[9] = system: Providencia rettgeri ATCC 9250; conditions: ATCC9250, agar two-fold dilution, 37° C., 20 hours
In short: as §1

[10] = system: Morganella morganii ATCC 8076h; conditions: ATCC8076H, agar two-fold dilution, 37° C., 20 hours
In short: as §1

[11] = system: Pseudomonas aeruginosa ATCC 25619; conditions: ATCC25619, ATCC 25619, agar two-fold dilution, 37° C., 20 hours, read-out: MIC
In short: as §1

[12] = system: Citrobacter freundii ATCC 8090; conditions: ATCC8090, ATCC 8090, agar two-fold dilution, 37° C., 20 hours, read-out: MIC
In short: as §1

[13] = system: Enterobacter cloacae ATCC 27508; conditions: ATCC27508, ATCC 27508, agar two-fold dilution, 37° C., 20 hours, read-out: MIC
In short: as §1

[14] = system: Proteus mirabilis ATCC 25933; conditions: ATCC25933, ATCC 25933, agar two-fold dilution, 37° C., 20 hours, read-out: MIC
In short: as §1

[15] = system: Bacillus cereus ATCC 11778; conditions: ATCC11778, ATCC 11778, agar two-fold dilution, 37° C., 20 hours, read-out: MIC
In short: as §1

[16] = system: Staphylococcus aureus ATCC 10537; conditions: ATCC10537, ATCC 10537, agar two-fold dilution, 37° C., 20 hours, read-out: MIC
In short: as §1

[17] = system: Micrococcus luteus ATCC 9341; conditions: ATCC9341, ATCC 9341, agar two-fold dilution, 37° C., 20 hours, read-out: MIC
In short: as §1

[18] = system: Streptococcus faecalis ATCC 29212; conditions: Enterococcus faecalis, ATCC29212; ATCC 29212; agar two-fold dilution, 37° C., 20 hours; read-out: MIC
In short: as §1

[19] = system: Klebsiella pneumoniae ATCC 10031; conditions: ATCC10031, ATCC 10031, agar two-fold dilution, 37° C., 20 hours, read-out: MIC
In short: as §1

[20] = system: Escherichia coli ATCC 25922; conditions: ATCC25922, agar two-fold dilution, 37° C., 20 hours
In short: as §1

[21] = system: Acinetobacter calcoaceticus ATCC 15473; conditions: ATCC15473, ATCC 15473, agar two-fold dilution, 37° C., 20 hours, read-out: MIC
In short: as §1

[22] = system: Serratia marcescens ATCC 27117; conditions: ATCC27117, ATCC 27117, agar two-fold dilution, 37° C., 20 hours, read-out: MIC
In short: as §1

[23] = system: Pseudomonas aeruginosa ATCC 10145; conditions: ATCC10145, ATCC 10145, agar two-fold dilution, 37° C., 20 hours, read-out: MIC
In short: as §1

[24] = system: Proteus vulgaris ATCC 6059; conditions: ATCC6059, ATCC 6059, agar two-fold dilution, 37° C., 20 hours, read-out: MIC
In short: as §1

[25] = system: Shigella sonnei ATCC 11060; conditions: ATCC11060, ATCC 11060, agar two-fold dilution, 37° C., 20 hours, read-out: MIC
In short: as §1

Row | Compound | MIC [1] | MIC [2] | MIC [3] | MIC [4] | MIC [5] | MIC [6] | MIC [7] | MIC [8] | MIC [9] | MIC [10] | MIC [11] | MIC [12] | MIC [13] | MIC [14] | MIC [15] | MIC [16] | MIC [17] | MIC [18] | MIC [19] | MIC [20] | other results
1 | C=CC[n+]1c(N)cc(N)nc1SCC1=C(C(=O)[O-])N2C(=O)C(NC(=O)/C(=N\OC(C)(C)C(=O)O)c3csc(N)n3)C2SC1 (stereo not drawn) [Compound I-3] | 0.5 µg/mL (≈ 0.77 µM) | 4 µg/mL (≈ 6.16 µM) | 2 µg/mL (≈ 3.08 µM) | 0.031 µg/mL (≈ 0.0477 µM) | 0.25 µg/mL (≈ 0.385 µM) | 0.13 µg/mL (≈ 0.2 µM) | 2 µg/mL (≈ 3.08 µM) | 2 µg/mL (≈ 3.08 µM) | ≤ 0.008 µg/mL | ≤ 0.008 µg/mL | 1 µg/mL (≈ 1.54 µM) | 0.13 µg/mL (≈ 0.2 µM) | 0.031 µg/mL (≈ 0.0477 µM) | 0.031 µg/mL (≈ 0.0477 µM) | 64 µg/mL (≈ 98.5 µM) | 2 µg/mL (≈ 3.08 µM) | 0.25 µg/mL (≈ 0.385 µM) | > 128 µg/mL | 0.063 µg/mL (≈ 0.097 µM) | 0.13 µg/mL (≈ 0.2 µM) | MIC [21]: 4 µg/mL (≈ 6.16 µM); MIC [22]: 0.13 µg/mL (≈ 0.2 µM); MIC [23]: 2 µg/mL (≈ 3.08 µM); MIC [24]: 0.031 µg/mL (≈ 0.0477 µM); MIC [25]: 0.063 µg/mL (≈ 0.097 µM)
2 | C=CC[n+]1c(N)cc(N)nc1SCC1=C(C(=O)[O-])N2C(=O)C(NC(=O)/C(=N\OCC(=O)O)c3csc(N)n3)C2SC1 (stereo not drawn) [Compound I-9] | 0.25 µg/mL (≈ 0.402 µM) | 4 µg/mL (≈ 6.43 µM) | 1 µg/mL (≈ 1.61 µM) | 0.031 µg/mL (≈ 0.0499 µM) | 0.13 µg/mL (≈ 0.209 µM) | 0.031 µg/mL (≈ 0.0499 µM) | 4 µg/mL (≈ 6.43 µM) | 1 µg/mL (≈ 1.61 µM) | ≤ 0.008 µg/mL | ≤ 0.008 µg/mL | 2 µg/mL (≈ 3.22 µM) | 0.063 µg/mL (≈ 0.101 µM) | ≤ 0.008 µg/mL | 0.031 µg/mL (≈ 0.0499 µM) | 64 µg/mL (≈ 103 µM) | 2 µg/mL (≈ 3.22 µM) | 0.25 µg/mL (≈ 0.402 µM) | > 128 µg/mL | 0.031 µg/mL (≈ 0.0499 µM) | 0.031 µg/mL (≈ 0.0499 µM) | MIC [21]: 8 µg/mL (≈ 12.9 µM); MIC [22]: 0.063 µg/mL (≈ 0.101 µM); MIC [23]: 16 µg/mL (≈ 25.7 µM); MIC [24]: 0.031 µg/mL (≈ 0.0499 µM); MIC [25]: 0.063 µg/mL (≈ 0.101 µM)
3 | CCCC[n+]1c(N)cc(N)nc1SCC1=C(C(=O)[O-])N2C(=O)C(NC(=O)/C(=N\OC(C)(C)C(=O)O)c3nsc(N)n3)C2SC1 (stereo not drawn) [Compound I-29] | 0.25 µg/mL (≈ 0.375 µM) | 8 µg/mL (≈ 12 µM) | 1 µg/mL (≈ 1.5 µM) | 0.13 µg/mL (≈ 0.195 µM) | 0.5 µg/mL (≈ 0.75 µM) | 0.25 µg/mL (≈ 0.375 µM) | 2 µg/mL (≈ 3 µM) | 8 µg/mL (≈ 12 µM) | ≤ 0.008 µg/mL | 0.016 µg/mL (≈ 0.024 µM) | 4 µg/mL (≈ 6 µM) | 0.25 µg/mL (≈ 0.375 µM) | 0.063 µg/mL (≈ 0.0945 µM) | 1 µg/mL (≈ 1.5 µM) | 128 µg/mL (≈ 192 µM) | 4 µg/mL (≈ 6 µM) | 0.5 µg/mL (≈ 0.75 µM) | > 128 µg/mL | 0.13 µg/mL (≈ 0.195 µM) | 0.25 µg/mL (≈ 0.375 µM) | MIC [21]: 32 µg/mL (≈ 48 µM); MIC [22]: 0.5 µg/mL (≈ 0.75 µM); MIC [23]: 8 µg/mL (≈ 12 µM); MIC [24]: 1 µg/mL (≈ 1.5 µM); MIC [25]: 0.5 µg/mL (≈ 0.75 µM)
4 | C=CC[n+]1c(N)cc(N)nc1SCC1=C(C(=O)[O-])N2C(=O)C(NC(=O)/C(=N\OCC)c3nsc(N)n3)C2SC1 (stereo not drawn) [Compound I-23] | 0.25 µg/mL (≈ 0.422 µM) | 1 µg/mL (≈ 1.69 µM) | 2 µg/mL (≈ 3.37 µM) | 0.13 µg/mL (≈ 0.219 µM) | 2 µg/mL (≈ 3.37 µM) | 0.5 µg/mL (≈ 0.844 µM) | 8 µg/mL (≈ 13.5 µM) | 0.25 µg/mL (≈ 0.422 µM) | ≤ 0.008 µg/mL | 0.031 µg/mL (≈ 0.0523 µM) | 2 µg/mL (≈ 3.37 µM) | 0.25 µg/mL (≈ 0.422 µM) | 0.031 µg/mL (≈ 0.0523 µM) | 2 µg/mL (≈ 3.37 µM) | 16 µg/mL (≈ 27 µM) | 1 µg/mL (≈ 1.69 µM) | 0.016 µg/mL (≈ 0.027 µM) | 32 µg/mL (≈ 54 µM) | 0.031 µg/mL (≈ 0.0523 µM) | 0.25 µg/mL (≈ 0.422 µM) | MIC [21]: 8 µg/mL (≈ 13.5 µM); MIC [22]: 1 µg/mL (≈ 1.69 µM); MIC [23]: 16 µg/mL (≈ 27 µM); MIC [24]: 1 µg/mL (≈ 1.69 µM); MIC [25]: 0.5 µg/mL (≈ 0.844 µM)
5 | CC(C)(O/N=C(\C(=O)NC1C(=O)N2C(C(=O)[O-])=C(CSc3nc(N)cc(N)[n+]3-c3ccccc3)CSC12)c1csc(N)n1)C(=O)O (stereo not drawn) [Compound I-35] | 0.5 µg/mL (≈ 0.729 µM) | 4 µg/mL (≈ 5.83 µM) | 0.5 µg/mL (≈ 0.729 µM) | 0.13 µg/mL (≈ 0.19 µM) | 0.5 µg/mL (≈ 0.729 µM) | 0.25 µg/mL (≈ 0.365 µM) | 2 µg/mL (≈ 2.92 µM) | 2 µg/mL (≈ 2.92 µM) | 0.031 µg/mL (≈ 0.0452 µM) | ≤ 0.008 µg/mL | 2 µg/mL (≈ 2.92 µM) | 0.25 µg/mL (≈ 0.365 µM) | 0.063 µg/mL (≈ 0.0919 µM) | 0.25 µg/mL (≈ 0.365 µM) | 16 µg/mL (≈ 23.3 µM) | 2 µg/mL (≈ 2.92 µM) | 0.25 µg/mL (≈ 0.365 µM) | > 128 µg/mL | 0.13 µg/mL (≈ 0.19 µM) | 0.25 µg/mL (≈ 0.365 µM) | MIC [21]: 16 µg/mL (≈ 23.3 µM); MIC [22]: 0.5 µg/mL (≈ 0.729 µM); MIC [23]: 4 µg/mL (≈ 5.83 µM); MIC [24]: 0.13 µg/mL (≈ 0.19 µM); MIC [25]: 0.25 µg/mL (≈ 0.365 µM)
6 | CCC[n+]1c(N)cc(N)nc1SCC1=C(C(=O)[O-])N2C(=O)C(NC(=O)/C(=N\OC(C)(C)C(=O)O)c3nsc(N)n3)C2SC1 (stereo not drawn) [Compound I-28] | 0.25 µg/mL (≈ 0.383 µM) | 8 µg/mL (≈ 12.3 µM) | 4 µg/mL (≈ 6.13 µM) | 0.063 µg/mL (≈ 0.0965 µM) | 0.5 µg/mL (≈ 0.766 µM) | 0.13 µg/mL (≈ 0.199 µM) | 2 µg/mL (≈ 3.06 µM) | 4 µg/mL (≈ 6.13 µM) | ≤ 0.008 µg/mL | ≤ 0.008 µg/mL | 2 µg/mL (≈ 3.06 µM) | 0.13 µg/mL (≈ 0.199 µM) | 0.031 µg/mL (≈ 0.0475 µM) | 0.13 µg/mL (≈ 0.199 µM) | 128 µg/mL (≈ 196 µM) | 4 µg/mL (≈ 6.13 µM) | 0.5 µg/mL (≈ 0.766 µM) | > 128 µg/mL | 0.13 µg/mL (≈ 0.199 µM) | 0.13 µg/mL (≈ 0.199 µM) | MIC [21]: 8 µg/mL (≈ 12.3 µM); MIC [22]: 0.25 µg/mL (≈ 0.383 µM); MIC [23]: 4 µg/mL (≈ 6.13 µM); MIC [24]: 0.25 µg/mL (≈ 0.383 µM); MIC [25]: 0.13 µg/mL (≈ 0.199 µM)
